This is an account of results in patent US9938301B2, “Dihydropyrimido fused ring derivative as HBV inhibitor” (QILU PHARMACEUTICAL CO., LTD., priority 2014, dated 2018).

The subject of one assay is HBV DNA in HepG2.2.15 cells. The assay can be described thus: HBV in vitro dot-blot hybridization test. It counts as cell-based, Hepatitis B virus. The settings on record: Hepatitis B virus, HepG2.2.15, dot-blot hybridization assay, read-out: Concentration for 50% inhibition of HBV (EC50)value. In outline: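 HepG2.2.15 cells (4×10^4/well) treated in duplicate with 6 five-fold compound dilutions (1% DMSO final), medium with compound renewed on day 5, cells harvested day 8-9. Intracellular HBV DNA quantified by dot-blot with DIG-labelled probe; % inhibition normalised to 1 μM GLS4 (100%) and DMSO (0%), EC50 fitted.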
`COC(=O)C1=C2C[C@H](NS(C)(=O)=O)CN2C(c2nccs2)=N[C@H]1c1cccc(F)c1Cl` [Example 165]: the EC50 is < 100 nM.

Staying with this assay, now noted: Hepatitis B virus, HepG2.2.15, summary list of target compounds, Examples 1-165 (same as Table 2), read-out: BIOACTIVITY (inhibitory actions on HBV DNA, EC50).
Regarding `COC(=O)C1=C2C[C@H](NS(C)(=O)=O)CN2C(c2nccs2)=N[C@H]1c1cccc(F)c1Cl` [Example 165], the EC50 is < 100 nM.

For another assay, the system named is HBV DNA in HepG2.2.15 cells. The experiment in a line: HBV in vitro assay quantitive qPCR test. It counts as cell-based. The settings on record: Hepatitis B virus, HepG2.2.15, read-out: BIOACTIVITY (inhibitory actions on HBV DNA, EC50). The procedure: • 1 Purpose of the test: • The content of HBV DNA in HepG2.2.15 cells was detected by real time quantitive qPCR test to evaluate an inhibitory action of the compound on HBV with an EC50 value of the compound as an indicator. • 2 Experimental materials: • 2.1 Cell lines: HepG2.2.15 Cells • HepG2.2.15 cell culture media (DMEM/F12, Invitrogen-11330057; 10% serum, Invitrogen-10099141; 100 units/ml Penicillin and 10 μg/ml Streptomycin, Invitrogen-15140122; 1% non-essential amino acid, Invitrogen-1140076; 2 mM L-GLUTAMINE, Invitrogen-25030081; 300 μg/ml Geneticin, Invitrogen-10131027 • 2.2 Reagents: • trypsin (Invitrogen-25300062) • DPBS (Hyclone-SH30028.01B) • DMSO (Sigma-D2650-100ML) • High-Throughput DNA Purification Kit (QIAamp 96 DNA Blood Kit, Qiagen-51162) • Quantitative Fast Start Universal Probe Reagent (FastStart Universal Probe Master, Roche-04914058001) • 2.3 Materials and Instruments: • 96-well cell culture plate (Corning-3599) • CO2 Incubator (HERA-CELL-240) • Optical Sealing Membrane (ABI-4311971) • Quantitative PCR 96-well Plate (Applied Biosystems-4306737) • Fluorescent Quantitative PCR Instrument (Applied Biosystems-7500 real time PCR system) • 3. Testing steps and Methods: • 3.1 HepG2.2.15 cells (4×10^4 cells/well) were planted into a 96-well plate, and at 37° C., 5% CO2 cultured overnight. • 3.2 On Day 2, the compounds were diluted in totally 8 concentrations with a dilution gradient of three times. The compounds at different concentrations were added into the culture wells in duplicate. The final concentration of DMSO in the culture media was 1%. 1 μM GLS4 was used as 100% inhibition control; 1% DMSO as 0% inhibition control. • 3.3 On Day 5, replacing with the fresh culture media containing the compound was performed. • 3.4 On Day 8, the culture media in the culture wells was collected, and DNA was extracted with a High-Throughput DNA Purification Kit (Qiagen-51162), See Specification of the product for specific steps. • 3.5 Preparation of PCR Reaction Mixture was shown in Table 1:
• 3.6 To each well of a 96-well PCR plate was added 15 μl reaction mixture, and then to each well was added 10 μl sample DNA or HBV DNA standard. • 3.7 The reaction conditions of PCR were: heating at 95° C. for 10 minutes; then at 95° C. denaturing for 15 seconds, and at 60° C. extending for 1 minute, totally 40 cycles. • 3.8 Data Analysis: • 3.8.1 The inhibition percentage was calculated: % Inh.=[1−(DNA copy number in sample−DNA copy number in 1 μM GLS4)/(DNA copy number in DMSO control−DNA copy number in 1 μM GLS4)]×100. • 3.8.2 Calculating EC50: the concentration of the compound for 50% inhibition of HBV (EC50) was calculated by using GraphPad Prism Software. • 4 Testing Results • The testing results were shown in Table 3: […]
On the technique in general: In qPCR the cycle at which signal appears reflects the starting amount.
As for `CCOP(=O)(N[C@H]1CC2=C(C(=O)OC)[C@H](c3ccc(F)cc3Cl)N=C(c3nccs3)N2C1)OCC` [Example 174], the EC50 lay in the range of 100 to 500 nM.
As for `COC(=O)C1=C2C[C@H](NS(C)(=O)=O)CN2C(c2nccs2)=N[C@H]1c1sccc1Cl` [Example 177], the EC50 was < 100 nM.
Same read-out and setting: under `COC(=O)C1=C2C[C@H](NP(=O)(OC)OC)CN2C(c2nccs2)=N[C@H]1c1ccc(F)cc1Cl` [Example 190] stands 100 to 500 nM.

Still in this assay, the particulars now being: Hepatitis B virus, HepG2.2.15, read-out: Concentration for 50% inhibition of HBV (EC50)value.
Take `CCOP(=O)(N[C@H]1CC2=C(C(=O)OC)[C@H](c3ccc(F)cc3Cl)N=C(c3nccs3)N2C1)OCC` [Example 174]: the EC50 was 100 to 500 nM.
With `COC(=O)C1=C2C[C@H](NS(C)(=O)=O)CN2C(c2nccs2)=N[C@H]1c1sccc1Cl` [Example 177], the EC50 was < 100 nM.
For the compound `COC(=O)C1=C2C[C@H](NP(=O)(OC)OC)CN2C(c2nccs2)=N[C@H]1c1ccc(F)cc1Cl` [Example 190], the EC50 lay in the range of 100 to 500 nM.

Still in this assay, the particulars now being: Hepatitis B virus; qPCR assay, HepG2.2.15 cells; read-out: Concentration for 50% inhibition of HBV (EC50)value.
Take `COC(=O)C1=C2C[C@H](NS(=O)(=O)CCN(C)C)CN2C(c2nccs2)=N[C@H]1c1ccc(F)cc1Cl` [Example 166]: the EC50 was < 100 nM.
In the case of `COC(=O)C1=C2C[C@H](NS(C)(=O)=O)CN2C(c2nccs2)=N[C@H]1c1ccc(F)c(F)c1F` [Example 167], the EC50 is < 100 nM.
For the compound `COC(=O)C1=C2C[C@H](NS(C)(=O)=O)CN2C(c2nccs2)=N[C@@H]1c1ccc(F)c(F)c1F` [Example 168], the EC50 is 100 to 500 nM.
For the compound `COC(=O)C1=C2C[C@H](N(C)S(C)(=O)=O)CN2C(c2nccs2)=N[C@H]1c1ccc(F)cc1Cl` [Example 169], the EC50 is < 100 nM.
On the same count and under the same terms, in the case of `COC(=O)C1=C2C[C@H](NS(=O)(=O)C(C)(C)C)CN2C(c2nccs2)=N[C@H]1c1ccc(F)cc1Cl` [Example 170] it was < 100 nM.
On the same count and under the same terms, under `COC(=O)C1=C2C[C@H](NS(=O)(=O)CCN)CN2C(c2nccs2)=N[C@H]1c1ccc(F)cc1Cl` [Example 171] stands < 100 nM; under `COC(=O)CS(=O)(=O)N[C@H]1CC2=C(C(=O)OC)[C@H](c3ccc(F)cc3Cl)N=C(c3nccs3)N2C1` [Example 172], < 100 nM.
As to `COC(=O)C1=C2C[C@H](NC(=O)C3CC3)CN2C(c2nccs2)=N[C@H]1c1ccc(F)cc1Cl` [Example 173], the EC50 was < 100 nM.
With `COC(=O)C1=C2C[C@H](NS(=O)(=O)O)CN2C(c2nccs2)=N[C@H]1c1ccc(F)cc1Cl` [Example 175], the EC50 lay in the range of 1000 to 5000 nM.
Regarding `CCOC(=O)C1=C2CN(CCO)S(=O)(=O)CN2C(c2nccs2)=N[C@H]1c1ccc(F)cc1Cl` [Example 176], the EC50 fell in the range of 1000 to 5000 nM.
The same measure, in the same setting: in the case of `COC(=O)C1=C2C[C@@H](NS(C)(=O)=O)CN2C(c2nccs2)=N[C@@H]1c1ccc(F)cc1Cl` [Example 178] it was 100 to 500 nM; in that of `COC(=O)C1=C2C[C@H](N(CC(F)F)S(C)(=O)=O)CN2C(c2nccs2)=N[C@H]1c1ccc(F)cc1Cl` [Example 179], 100 to 500 nM.
As for `COC(=O)C1=C2C[C@H](NS(C)(=O)=O)CN2C(c2nccs2)=N[C@H]1c1ccc(F)cc1C` [Example 180], the EC50 is < 100 nM.

Still in this assay, the particulars now being: Hepatitis B virus; summary list of target compounds, Examples 166-220 (values of Table 3); HepG2.2.15 cells; read-out: BIOACTIVITY (inhibitory actions on HBV DNA, EC50).
For `COC(=O)C1=C2C[C@H](NS(=O)(=O)CCN(C)C)CN2C(c2nccs2)=N[C@H]1c1ccc(F)cc1Cl` [Example 166], the EC50 is < 100 nM.
Regarding `COC(=O)C1=C2C[C@H](NS(C)(=O)=O)CN2C(c2nccs2)=N[C@H]1c1ccc(F)c(F)c1F` [Example 167], the EC50 is < 100 nM.
On to `COC(=O)C1=C2C[C@H](NS(C)(=O)=O)CN2C(c2nccs2)=N[C@@H]1c1ccc(F)c(F)c1F` [Example 168], for which the EC50 is 100 to 500 nM.
Regarding `COC(=O)C1=C2C[C@H](N(C)S(C)(=O)=O)CN2C(c2nccs2)=N[C@H]1c1ccc(F)cc1Cl` [Example 169], the EC50 is < 100 nM.
For the compound `COC(=O)C1=C2C[C@H](NS(=O)(=O)C(C)(C)C)CN2C(c2nccs2)=N[C@H]1c1ccc(F)cc1Cl` [Example 170], the EC50 was < 100 nM.
Consider `COC(=O)C1=C2C[C@H](NS(=O)(=O)CCN)CN2C(c2nccs2)=N[C@H]1c1ccc(F)cc1Cl` [Example 171], for which the EC50 is < 100 nM.
For `COC(=O)CS(=O)(=O)N[C@H]1CC2=C(C(=O)OC)[C@H](c3ccc(F)cc3Cl)N=C(c3nccs3)N2C1` [Example 172], the EC50 was < 100 nM.
For `COC(=O)C1=C2C[C@H](NC(=O)C3CC3)CN2C(c2nccs2)=N[C@H]1c1ccc(F)cc1Cl` [Example 173], the EC50 was < 100 nM.
On the same count and under the same terms, under `COC(=O)C1=C2C[C@H](NS(=O)(=O)O)CN2C(c2nccs2)=N[C@H]1c1ccc(F)cc1Cl` [Example 175] stands 1000 to 5000 nM; under `CCOC(=O)C1=C2CN(CCO)S(=O)(=O)CN2C(c2nccs2)=N[C@H]1c1ccc(F)cc1Cl` [Example 176], 1000 to 5000 nM; under `COC(=O)C1=C2C[C@@H](NS(C)(=O)=O)CN2C(c2nccs2)=N[C@@H]1c1ccc(F)cc1Cl` [Example 178], 100 to 500 nM.
In the case of `COC(=O)C1=C2C[C@H](N(CC(F)F)S(C)(=O)=O)CN2C(c2nccs2)=N[C@H]1c1ccc(F)cc1Cl` [Example 179], the EC50 fell in the range of 100 to 500 nM.
With `COC(=O)C1=C2C[C@H](NS(C)(=O)=O)CN2C(c2nccs2)=N[C@H]1c1ccc(F)cc1C` [Example 180], the EC50 was < 100 nM.
